Measured values from the supplement of paper PMC10307832.

Legend:
Experiment in all cases: relative viability (nuclei count vs DMSO), 5 days (fraction); higher = more cells survive
[1] = tested on: SW 1573
How it was run: (§1)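 Relative viability is defined as nuclei in treated wells over nuclei in vehicle wells. Duplicate plates were run and medians reported. Lung cancer cell lines in 1536-well plates were dosed by pin tool one day after seeding, with one drug or with a fixed anchor-drug dose plus five library-drug doses (not always all listed) in √10 steps, and nuclei were counted after 5 days.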

[2] = tested on: NCI-H3122
How it was run: as §1

[3] = tested on: HCC-827
How it was run: as §1

[4] = tested on: NCI-H2085
How it was run: as §1

[5] = tested on: LK-2
How it was run: as §1

[6] = tested on: RERF-LC-KJ
How it was run: as §1

[7] = tested on: LXF-289
How it was run: as §1

[8] = tested on: NCI-H23
How it was run: as §1

[9] = tested on: LOU-NH91
How it was run: as §1

[10] = tested on: LCLC-103H
How it was run: as §1

[11] = tested on: NCI-H1975
How it was run: as §1

[12] = tested on: NCI-H1666
How it was run: as §1

[13] = tested on: EMC-BAC-2
How it was run: as §1

[14] = tested on: SW 900
How it was run: as §1

[15] = tested on: EPLC-272H
How it was run: as §1

[16] = tested on: HCC-78
How it was run: as §1

[17] = tested on: NCI-H322M
How it was run: as §1

[18] = tested on: NCI-H2126
How it was run: as §1

[19] = tested on: LU99A
How it was run: as §1

[20] = tested on: ChaGo-K-1
How it was run: as §1

[21] = tested on: SK-LU-1
How it was run: as §1

[22] = tested on: NCI-H2405
How it was run: as §1

Q: How did the relative viability ([1]; first compound 0.08 µM) turn out when `Oc1nc(-c2ccc(C(F)(F)F)cc2)nc2c1CSCC2` [XAV939] + Cc1cc(Nc2cc(N3CCN(C)CC3)nc(Sc3ccc(NC(=O)C4CC4)cc3)n2)n[nH]1 [Tozasertib] (partner 0.1 µM) was run?
A: 0.174

Q: What about the relative viability ([1]; first compound 0.253 µM) of the same compound?
A: 0.139

Q: What about the relative viability ([1]; first compound 0.8 µM) of the same compound?
A: 0.211

Q: And the relative viability ([1]; first compound 2.53 µM)?
A: 0.213

Q: And the relative viability ([2]; first compound 0.08 µM)?
A: 0.569

Q: What about the relative viability ([2]; first compound 0.253 µM) of the same compound?
A: 0.407

Q: What about the relative viability ([2]; first compound 0.8 µM) of the same compound?
A: 0.389

Q: What about the relative viability ([2]; first compound 2.53 µM) of the same compound?
A: 0.337

Q: What about the relative viability ([3]; first compound 0.08 µM) of the same compound?
A: 0.423

Q: What about the relative viability ([3]; first compound 0.253 µM) of the same compound?
A: 0.387

Q: And the relative viability ([3]; first compound 0.8 µM)?
A: 0.414

Q: And the relative viability ([3]; first compound 2.53 µM)?
A: 0.384

Q: What about the relative viability ([4]; first compound 0.08 µM) of the same compound?
A: 0.774

Q: And the relative viability ([4]; first compound 0.253 µM)?
A: 0.856

Q: And the relative viability ([4]; first compound 0.8 µM)?
A: 0.651

Q: And the relative viability ([4]; first compound 2.53 µM)?
A: 0.688

Q: And the relative viability ([5]; first compound 0.08 µM)?
A: 0.185

Q: And the relative viability ([5]; first compound 0.253 µM)?
A: 0.171

Q: What about the relative viability ([5]; first compound 0.8 µM) of the same compound?
A: 0.157

Q: What about the relative viability ([5]; first compound 2.53 µM) of the same compound?
A: 0.172

Q: And the relative viability ([6]; first compound 0.08 µM)?
A: 0.546

Q: What about the relative viability ([6]; first compound 0.253 µM) of the same compound?
A: 0.465

Q: What about the relative viability ([6]; first compound 0.8 µM) of the same compound?
A: 0.462

Q: And the relative viability ([6]; first compound 2.53 µM)?
A: 0.409

Q: And the relative viability ([7]; first compound 0.08 µM)?
A: 0.215

Q: And the relative viability ([7]; first compound 0.253 µM)?
A: 0.187

Q: And the relative viability ([7]; first compound 0.8 µM)?
A: 0.161

Q: And the relative viability ([7]; first compound 2.53 µM)?
A: 0.111

Q: What about the relative viability ([8]; first compound 0.08 µM) of the same compound?
A: 0.403

Q: And the relative viability ([8]; first compound 0.253 µM)?
A: 0.373

Q: What about the relative viability ([8]; first compound 0.8 µM) of the same compound?
A: 0.343

Q: What about the relative viability ([8]; first compound 2.53 µM) of the same compound?
A: 0.357

Q: And the relative viability ([9]; first compound 0.08 µM)?
A: 0.655

Q: What about the relative viability ([9]; first compound 0.253 µM) of the same compound?
A: 0.663

Q: What about the relative viability ([9]; first compound 0.8 µM) of the same compound?
A: 0.637

Q: What about the relative viability ([9]; first compound 2.53 µM) of the same compound?
A: 0.695

Q: What about the relative viability ([10]; first compound 0.08 µM) of the same compound?
A: 0.576

Q: And the relative viability ([10]; first compound 0.253 µM)?
A: 0.402

Q: What about the relative viability ([10]; first compound 0.8 µM) of the same compound?
A: 0.444

Q: What about the relative viability ([10]; first compound 2.53 µM) of the same compound?
A: 0.504

Q: And the relative viability ([11]; first compound 0.08 µM)?
A: 0.729

Q: What about the relative viability ([11]; first compound 0.253 µM) of the same compound?
A: 0.736

Q: What about the relative viability ([11]; first compound 0.8 µM) of the same compound?
A: 0.683

Q: What about the relative viability ([11]; first compound 2.53 µM) of the same compound?
A: 0.514

Q: What about the relative viability ([12]; first compound 0.08 µM) of the same compound?
A: 0.576

Q: And the relative viability ([12]; first compound 0.253 µM)?
A: 0.565

Q: And the relative viability ([12]; first compound 0.8 µM)?
A: 0.599

Q: And the relative viability ([12]; first compound 2.53 µM)?
A: 0.582

Q: And the relative viability ([13]; first compound 0.08 µM)?
A: 0.272

Q: And the relative viability ([13]; first compound 0.253 µM)?
A: 0.283

Q: What about the relative viability ([13]; first compound 0.8 µM) of the same compound?
A: 0.259

Q: What about the relative viability ([13]; first compound 2.53 µM) of the same compound?
A: 0.201

Q: What about the relative viability ([14]; first compound 0.08 µM) of the same compound?
A: 0.663

Q: And the relative viability ([14]; first compound 0.253 µM)?
A: 0.549

Q: What about the relative viability ([14]; first compound 0.8 µM) of the same compound?
A: 0.535

Q: What about the relative viability ([14]; first compound 2.53 µM) of the same compound?
A: 0.323

Q: What about the relative viability ([15]; first compound 0.08 µM) of the same compound?
A: 0.409

Q: And the relative viability ([15]; first compound 0.253 µM)?
A: 0.287

Q: And the relative viability ([15]; first compound 0.8 µM)?
A: 0.22

Q: And the relative viability ([15]; first compound 2.53 µM)?
A: 0.255

Q: What about the relative viability ([16]; first compound 0.08 µM) of the same compound?
A: 0.558

Q: And the relative viability ([16]; first compound 0.253 µM)?
A: 0.373

Q: What about the relative viability ([16]; first compound 0.8 µM) of the same compound?
A: 0.531

Q: What about the relative viability ([16]; first compound 2.53 µM) of the same compound?
A: 0.368

Q: What about the relative viability ([17]; first compound 0.08 µM) of the same compound?
A: 0.553

Q: And the relative viability ([17]; first compound 0.253 µM)?
A: 0.432

Q: What about the relative viability ([17]; first compound 0.8 µM) of the same compound?
A: 0.431

Q: And the relative viability ([17]; first compound 2.53 µM)?
A: 0.4

Q: What about the relative viability ([18]; first compound 0.08 µM) of the same compound?
A: 0.791

Q: What about the relative viability ([18]; first compound 0.253 µM) of the same compound?
A: 0.774

Q: What about the relative viability ([18]; first compound 0.8 µM) of the same compound?
A: 0.778

Q: And the relative viability ([18]; first compound 2.53 µM)?
A: 0.651

Q: What about the relative viability ([19]; first compound 0.08 µM) of the same compound?
A: 0.268

Q: What about the relative viability ([19]; first compound 0.253 µM) of the same compound?
A: 0.261

Q: And the relative viability ([19]; first compound 0.8 µM)?
A: 0.237

Q: What about the relative viability ([19]; first compound 2.53 µM) of the same compound?
A: 0.284

Q: And the relative viability ([20]; first compound 0.08 µM)?
A: 0.216

Q: And the relative viability ([20]; first compound 0.253 µM)?
A: 0.223

Q: And the relative viability ([20]; first compound 0.8 µM)?
A: 0.222

Q: What about the relative viability ([20]; first compound 2.53 µM) of the same compound?
A: 0.209

Q: And the relative viability ([21]; first compound 0.08 µM)?
A: 0.35

Q: What about the relative viability ([21]; first compound 0.253 µM) of the same compound?
A: 0.267

Q: What about the relative viability ([21]; first compound 0.8 µM) of the same compound?
A: 0.322

Q: And the relative viability ([21]; first compound 2.53 µM)?
A: 0.279

Q: What about the relative viability ([22]; first compound 0.08 µM) of the same compound?
A: 0.805

Q: What about the relative viability ([22]; first compound 0.253 µM) of the same compound?
A: 0.72

Q: What about the relative viability ([22]; first compound 0.8 µM) of the same compound?
A: 0.712

Q: What about the relative viability ([22]; first compound 2.53 µM) of the same compound?
A: 0.66
